Here are results for one compound from PMC10411625, “Rationally designed stapled peptides allosterically inhibit PTBP1–RNA-binding” (Chemical Science, 2023).

One data set deals with T1, hnRNP A2/B1 (Homo sapiens, UniProt P22626).
T1 construct: (1-251); made in house; host or cells: E. coli BL21 (DE3) RIPL
Put plainly: Competitive fluorescence polarization assay, hnRNP A2/B1 and RNA-AB. The class given is binding. To be noted: Fig. 3C; competitive FP, 10 nM hnRNPA2/B1, 1 nM Cy5-labeled RNA-AB, 25 mM HEPES pH 8.0; read-out: P-6 Ki, construct hnRNP A2/B1. From the text: The RRM domain is the most commonly occurring RNA-binding domain in the proteome making it challenging to find selective inhibitors.[23,46] Although various ligands have been described, their selectivity is rarely investigated, with an exception for the Musashi-1 inhibitor Ro 08-2750.[47–58] To investigate whether P-6 has an effect on the RNA-binding of other dual RRM containing proteins, we evaluated its inhibitory potency against another hnRNP protein (hnRNP A2/B1) as well as a splicing factor from the SR-protein class (SRSF1).[1] We evaluated P-6 in competitive fluorescence polarization assays using previously described RNAs recognized by these proteins.[59] […]
performed in FP bufferPTBP1. […]
serially diluted in the same buffer. […]
a final concentration of 10 nM probe. […]
the settings mentioned previously.
Fluorescence polarization assay with SRSF1
Fluorescence polarization was
Fluorescence polarization assay with hnRNPA2/B1
For the competitive assay 10 nM
Microscale thermophoresis […]
afterwards serially diluted into FP buffer.
The data was evaluated at […]
experiments were performed in duplicates.
Circular Dichroism Spectroscopy […]
secondary structure analysis with a reference data set. For experiments with PTBP1 constructs the […]
On the technique in general: Polarisation of emitted light reports the rotation of a fluorescent probe.

The next data set concerns HEK293T cells. Kind of data set: Cell viability assay (CellTiterGlo 2.0). In kind it is cell-based. The settings on record: CellTiterGlo 2.0, concentrations of up to 300 μM. As for the experimental part:
protein was buffer exchanged into CD-Buffer using spin columns and measurements were performed in this buffer under similar conditions with protein concentrations of 0.2 mg/ml.
Co-Crystallisation of RRM1Δα3 with P-6
Protein construct RRM1Δα3 was purified using the protocol discussed above and concentrated to 14 mg/ml. P-6 was dissolved in SEC buffer and added in a 1.5 molar excess to the protein solution. After removal of particles by centrifugation (20000 x g, 4 °C, 10 min) sitting-drop experiments were set up by adding 200 nl of protein/ligand to 100 nl reservoir solution (1.89 M (NH4)2SO4, 0.1 M HEPES pH 6.86, 2% v/v PEG400) in MRC 3-drop plates. Sealed plates were incubated at 20 °C using a Formulatrix RockImager and crystals were obtained after several days. Prior to flash-freezing the crystals were cryo conserved by adding 0.5 µl reservoir solution containing 20% v/v glycerol to the drop.
X-ray data collection and processing
X-ray diffraction data was collected at X10SA (PXII) at Swiss Light Source. […]
HEK293T cells were seeded at 30000 cells/well in 75 µl DMEM supplemented with 10% FBS with 1x Pen-Strep (Gibco) in 96-well plates on the day prior the experiment. […] Cell viability was read out using CellTiterGlo 2.0 (Promega) according to the manufacturers protocol. Viability was calculated in % of signal normalized to the DMSO controls.
On the technique in general: In ATP-based viability assays light output follows the ATP content of the culture.

T1 sequence (P22626 1-251, species assumed): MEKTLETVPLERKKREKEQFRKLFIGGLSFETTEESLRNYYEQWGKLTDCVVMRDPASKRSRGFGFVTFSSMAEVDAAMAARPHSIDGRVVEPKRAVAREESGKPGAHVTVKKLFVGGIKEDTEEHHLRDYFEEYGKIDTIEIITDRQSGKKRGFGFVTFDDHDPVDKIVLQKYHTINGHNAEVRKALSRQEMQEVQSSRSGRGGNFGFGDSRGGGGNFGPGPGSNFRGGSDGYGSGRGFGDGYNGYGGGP

In the case of `CC(=O)N[C@@H](CC(N)=O)C(=O)N[C@@H](CCC(N)=O)C(=O)N[C@@]1(C)CCCC=CCCCC2(CCCC=CCCC[C@](C)(C(=O)N[C@H](C(=O)N[C@@H](CC(N)=O)C(N)=O)C(C)C)NC(=O)[C@H](CCC(N)=O)NC(=O)[C@H](CC(C)C)NC(=O)[C@H](C)NC2=O)NC(=O)[C@H](CCC(N)=O)NC(=O)[C@H](C)NC(=O)[C@H](CCCNC(=N)N)NC1=O` (some centres unmarked) [Peptide P-6], on hnRNP A2/B1, the Ki was over 1000 µM. Further, the “cell viability (in words)” value in the data set on HEK293T cells was “not affected”.
